Results taken from patent US4529736A, “3a-(substituted phenyl)-2,3,3a,4,7,7a-hexahydro[or 3a-(substituted-phenyl)octahydro]-4,7-alkano-1H-isoindoles for treating depression in warm-blooded animals” (American Cyanamid Company, priority 1983, dated 1985).
Structures can show the parent of a compound that is named as a salt. Where two headings read alike, the source gives them in different places.

Experiments:
[1] = biological target: T1, [^3 H]-imipramine binding to human platelet membranes (Homo sapiens, UniProt P31645); experiment: Platelet Imipramine Binding: inhibition of [^3 H]-imipramine binding to human platelet membranes; conditions: 50 μl of 50 μM compound stock + 200 μl membrane/[^3 H]imipramine mixture; 60 minutes at 0° C.; 10 μM desmethylimipramine = 0% binding
T1 construct: from tissue; host or cells: human platelets (sonicated, washed membranes)
T1 sequence (P31645 whole entry): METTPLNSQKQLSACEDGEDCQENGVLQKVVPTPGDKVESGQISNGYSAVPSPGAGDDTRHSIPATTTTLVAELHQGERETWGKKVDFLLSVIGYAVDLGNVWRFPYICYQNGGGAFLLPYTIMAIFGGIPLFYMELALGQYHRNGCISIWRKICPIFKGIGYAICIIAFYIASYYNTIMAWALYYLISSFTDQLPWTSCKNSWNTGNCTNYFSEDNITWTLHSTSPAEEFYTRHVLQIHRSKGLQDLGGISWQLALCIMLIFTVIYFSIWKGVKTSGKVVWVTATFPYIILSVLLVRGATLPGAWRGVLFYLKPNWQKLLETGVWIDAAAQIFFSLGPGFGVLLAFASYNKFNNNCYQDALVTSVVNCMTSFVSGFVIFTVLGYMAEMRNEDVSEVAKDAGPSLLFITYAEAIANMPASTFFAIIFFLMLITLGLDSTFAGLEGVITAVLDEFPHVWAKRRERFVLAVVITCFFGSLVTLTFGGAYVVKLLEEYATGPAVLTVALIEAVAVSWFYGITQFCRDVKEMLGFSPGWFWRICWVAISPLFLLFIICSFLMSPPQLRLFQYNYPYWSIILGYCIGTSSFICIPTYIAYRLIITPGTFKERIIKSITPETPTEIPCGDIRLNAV
Method: The activity of the compounds of this invention as antidepressant agents was further verified in the following test which measures the ability of a test compound to inhibit [^3 H]-imipramine binding to human platelet membranes.
Human platelet concentrates were diluted 1:20 with antiprotease containing buffer of the following composition:
0.005N potassium chloride
3 mN ethylenediaminetetraacetic acid
1 mN ethyleneglycol-bis-(β-aminoethyl ether)-N,N'-tetraacetic acid
This buffer was kept at pH 6.8 to prevent platelet release and aggregation.
The diluted platelets were centrifuged at 2500 g and then resuspended in 50 volumes of the same buffer. The cells were then ruptured with a Branson sonicator while the suspension was maintained in an ice bath. The ruptured cells were then centrifuged at 18,000 g, resuspended in fresh buffer and recentrifuged at 18,000 g. These membranes were diluted with the above antiprotease buffer which had been adjusted to pH 7.4 and to a concentration of 3.0 mg/ml.
The test compounds were dissolved in dimethylsulfoxide at a concentration of 50 mM and then diluted 1:10 in either water, 0.1M hydrochloric acid or 0.1M sodium hydroxide. They were then diluted 1:100 in buffer to 50 μM, and 50 μl of this stock solution was placed in triplicate test tubes. The tubes were cooled to 0° C. and 200 μl of the following mixture were added:
100 μl of 3 mg/ml membrane in buffer
50 μl of 15 nM[^3 H]imipramine in buffer
The tubes were incubated for 60 minutes at 0° C. Controls contain either buffer alone (100%) of 10 μM of final desmethylimipramine (DMI) (0%).
The samples were diluted with 5 ml of buffer [0.12M-sodium chloride, 0.05M-tris buffer, 0.005M-potassium chloride (pH 7.4)], vacuum filtered and washed twice with 5 ml of buffer. Radioactivity was measured in a liquid scintillation counter and the degree of binding was calculated.

[2] = system: tetrabenazine-induced ptosis; experiment: Tetrabenazine Induced Ptosis (inhibition of ptosis); type: in vivo; conditions: Mus musculus, read-out: % Mice Responding
Method: The antidepressant activity of the compounds of this invention was further established in the following test. Inhibition of tetrabenazine-induced ptosis is observed concomitantly with the inhibition of tetrabenazine-induced depression. Ptosis is defined as more than 75% closure of palpebral aperture induced in animals by the administration of tetrabenazine methanesulfonate. The compounds were administered orally (P.O.) or intraperitoneally (I.P.) at 25 mg/kg to groups of 10 mice. Thirty minutes later, tetrabenazine methanesulfonate was administered intraperitoneally to each mouse at a dose of 39 mg/kg. Thirty minutes after the injection of tetrabenazine, the mice were placed on an observation disc and examined for 10 seconds for inhibition of ptosis. […]

[3] = system: tetrabenazine-induced depression; experiment: Tetrabenazine Induced Depression (exploratory behaviour); type: in vivo; conditions: Mus musculus, read-out: % Mice Protected
Method: The compounds of this invention are useful as antidepressant agents in warm-blooded animals as verified by the following test. The antidepressant properties of these compounds were tested by measuring their ability to counteract depression induced in animals by the administration of tetrabenazine methanesulfonate. Each test compound was administered orally (P.O.) or intraperitoneally (I.P.) to 10 mice at a dose of 25 mg/kg of body weight. Thirty minutes later, tetrabenazine methanesulfonate was administered intraperitoneally to each mouse at a dose of 39 mg/kg of body weight, which dose is known to depress markedly the exploratory behaviour of normal mice. Thirty minutes later the mice were tested for their exploratory behaviour as described by E. Greenblatt and A. C. Osterberg, Toxicology and Applied Pharmacology, 7, 566-578 (1965).

[4] = system: stress induced depressed ("coping") behavior; experiment: Stress Induced Depressed Behavior Test; type: in vivo; conditions: rats, intraperitoneally at 5-20 mg/kg; warm (44.5° C.) surface for 15 minutes; high ratio = active
Method: The compounds of this invention are active as antistress agents in warm-blooded animals as evidenced by their results when tested in the Stress Induced Depressed Behavior Test. In this test, rats were confined on a warm (44.5° C.), but aversive, surface for 15 minutes. After 5-6 minutes, control rats began to show episodes of depressed ("coping") behavior where they remained flat and immobile for short to long periods of time. The onset and total duration of this behavior was timed. A ratio of onset/duration was calculated. The test compounds were administered intraperitoneally at 5-20 mg/kg of body weight. Active compounds prolong the time of onset and shorten the duration time resulting in high ratios.

What does the source list for `Cc1ccc([C@@]23CN(C)C[C@@H]2[C@@H]2C=C[C@H]3C2)cc1` (relative stereo) [2,3,3a,4,7,7a-Hexahydro-2-methyl-3a-(4-methylphenyl)-4,7-methano-1H-isoindole maleate (1:1)]?
inhibition at 10 µM [1]: 98%; responders at 25 mg/kg ([2]; po): 90%; responders at 25 mg/kg ([3]; ip): 80%

`CN1C[C@@H]2[C@@H]3C=C[C@@H](C3)[C@]2(c2cccc(C(F)(F)F)c2)C1` (relative stereo) [2,3,3a,4,7,7a-Hexahydro-2-methyl-3a-[3-(trifluoromethyl)phenyl]-4,7-methano-1H-isoindole fumarate] was tested. Which inhibition at 10 µM [1] did it give?
Its inhibition at 10 µM is 91%.

What about the responders at 25 mg/kg ([2]; ip) of the same compound?
The responders at 25 mg/kg was 100%.

And the responders at 25 mg/kg ([3]; ip)?
The responders at 25 mg/kg was 70%.

With `COc1cccc([C@@]23CN(C)C[C@@H]2[C@@H]2C=C[C@H]3C2)c1` (relative stereo) [2,3,3a,4,7,7a-Hexahydro-3a-(3-methoxyphenyl)-2-methyl-4,7-methano-1H-isoindole maleate (1:1)] as the compound, how does the inhibition at 10 µM [1] read?
The inhibition at 10 µM was 86%.

And the responders at 25 mg/kg ([2]; po)?
The responders at 25 mg/kg was 60%.

And the responders at 25 mg/kg ([3]; po)?
Its responders at 25 mg/kg is 40%.

Which results are given for `Cc1ccc([C@@]23CNC[C@@H]2[C@@H]2C=C[C@H]3C2)cc1` (relative stereo) [2,3,3a,4,7,7a-Hexahydro-3a-(4-methylphenyl)-4,7-methano-1H-isoindole maleate (1:1)]?
inhibition at 10 µM [1]: 94%; responders at 25 mg/kg ([2]; ip): 60%

What does the source list for `CN1C[C@@H]2[C@@H]3C=C[C@@H](C3)[C@]2(c2cccc(O)c2)C1` (relative stereo) [3-(1,2,3,4,7,7a-Hexahydro-2-methyl-4,7-methano-3aH-isoindol-3a-yl)phenol]?
inhibition at 10 µM [1]: 86%; responders at 25 mg/kg ([2]; po): 100%; responders at 25 mg/kg ([3]; po): 60%

What does the source list for `Clc1ccc([C@@]23CNC[C@@H]2[C@@H]2C=C[C@H]3C2)cc1` (relative stereo) [3-a-(4-Chlorophenyl)-2,3,3a,4,7,7a-hexahydro-4,7-methano-1H-isoindole fumarate]?
inhibition at 10 µM [1]: 98%; responders at 25 mg/kg ([2]; po): 80%; responders at 25 mg/kg ([3]; ip): 60%

How did the inhibition at 10 µM [1] turn out when `CCN1C[C@@H]2C3CCC(CC3)[C@]2(c2ccc(Cl)c(Cl)c2)C1` (relative stereo) [3a-(3,4-Dichlorophenyl)-2-ethyloctahydro-4,7-ethano-1H-isoindole fumarate (1:1)] was run?
The inhibition at 10 µM was 89%.

What about the responders at 25 mg/kg ([2]; ip) of the same compound?
The responders at 25 mg/kg was 100%.

And the responders at 25 mg/kg ([3]; po)?
The responders at 25 mg/kg was 50%.

And the Ratio onset/duration [4]?
The Ratio onset/duration was 66.

Which results are given for `CN1C[C@@H]2C3CCC(CC3)[C@]2(c2ccc(Cl)c(Cl)c2)C1` (relative stereo) [3a-(3,4-Dichlorophenyl)octahydro-2-methyl-4,7-ethano-1H-isoindole fumarate (1:1)]?
inhibition at 10 µM [1]: 94%; responders at 25 mg/kg ([2]; ip): 90%; responders at 25 mg/kg ([3]; po): 50%; Ratio onset/duration [4]: 83

How did the inhibition at 10 µM [1] turn out when `CN1C[C@@H]2[C@@H]3CC[C@@H](C3)[C@]2(c2ccc(Cl)c(Cl)c2)C1` (relative stereo) [3a-(3,4-Dichlorophenyl)octahydro-2-methyl-4,7-methano-1H-isoindole hydrochloride] was run?
Its inhibition at 10 µM is 93%.

What about the responders at 25 mg/kg ([2]; ip) of the same compound?
Its responders at 25 mg/kg is 100%.

And the responders at 25 mg/kg ([3]; ip)?
Its responders at 25 mg/kg is 60%.

What about the Ratio onset/duration [4] of the same compound?
Its Ratio onset/duration is 59.

What does the source list for `Clc1ccc([C@@]23CNC[C@@H]2[C@@H]2CC[C@H]3C2)cc1Cl` (relative stereo) [3a-(3,4-Dichlorophenyl)octahydro-4,7-methano-1H-isoindole hydrochloride]?
inhibition at 10 µM [1]: 96%; responders at 25 mg/kg ([2]; ip): 100%; responders at 25 mg/kg ([3]; po): 40%; Ratio onset/duration [4]: 76

With `CN1C[C@@H]2C3CCC(CC3)[C@]2(c2ccc(F)c(F)c2)C1` (relative stereo) [3a-(3,4-Difluorophenyl)octahydro-2-methyl-4,7-ethano-1H-isoindole fumarate (1:1)] as the compound, how does the inhibition at 10 µM [1] read?
The inhibition at 10 µM was 100%.

Which results are given for `CN1C[C@@H]2[C@@H]3CC[C@@H](C3)[C@]2(c2ccc(F)c(F)c2)C1` (relative stereo) [3a-(3,4-Difluorophenyl)octahydro-2-methyl-4,7-methano-1H-isoindole fumarate (1:1)]?
inhibition at 10 µM [1]: 95%; responders at 25 mg/kg ([2]; ip): 70%; responders at 25 mg/kg ([3]; ip): 50%

How did the inhibition at 10 µM [1] turn out when `CN1C[C@@H]2[C@@H]3C=C[C@@H](C3)[C@]2(c2cccc(Cl)c2)C1` (relative stereo) [3a-(3-Chlorophenyl)2,3,3a,4,7,7a-hexahydro-2-methyl-4,7-methano-1H-isoindole fumarate (1:1)] was run?
The inhibition at 10 µM was 86%.

What about the responders at 25 mg/kg ([2]; ip) of the same compound?
The responders at 25 mg/kg was 100%.

And the responders at 25 mg/kg ([3]; ip)?
The responders at 25 mg/kg was 60%.

And the Ratio onset/duration [4]?
Its Ratio onset/duration is 13.

What does the source list for `C[N+]1(C)C[C@@H]2[C@@H]3CC[C@@H](C3)[C@]2(c2ccc(N=[N+]=[N-])cc2)C1` (relative stereo) [3a-(4-Azidophenyl)octahydro-2,2-dimethyl-4,7-methano-1H-isoindolium iodide]?
inhibition at 10 µM [1]: 88%; responders at 25 mg/kg ([2]; po, P.O., 25 mg/kg, responders: 75% or greater opening of palpebral aperture): 100%; responders at 25 mg/kg ([3]; po, P.O., 25 mg/kg, 10 mice, tetrabenazine methanesulfonate 39 mg/kg I.P.): 30%

`CN1C[C@@H]2[C@@H]3CC[C@@H](C3)[C@]2(c2ccc(Cl)cc2)C1` (relative stereo) [3a-(4-Chlorophenyl)octahydro-2-methyl-4,7-methano-1H-isoindole fumarate (1:1)] was tested. Which inhibition at 10 µM [1] did it give?
The inhibition at 10 µM was 91%.

And the responders at 25 mg/kg ([2]; ip)?
Its responders at 25 mg/kg is 90%.

And the responders at 25 mg/kg ([3]; ip)?
Its responders at 25 mg/kg is 60%.

And the Ratio onset/duration [4]?
Its Ratio onset/duration is 20.

Which inhibition at 10 µM [1] does the source give for `CN1C[C@@H]2[C@@H]3CC[C@@H](C3)[C@]2(c2ccc(N)cc2)C1` (relative stereo) [4-(1,2,3,4,5,6,7,7a-Octahydro-2-methyl-4,7-methano-3aH-isoindol-3a-yl)benzenamine fumarate (1:1)] here?
The inhibition at 10 µM was 80%.

What about the responders at 25 mg/kg ([2]; ip) of the same compound?
Its responders at 25 mg/kg is 100%.

And the responders at 25 mg/kg ([3]; ip)?
The responders at 25 mg/kg was 50%.

What does the source list for `CN1C[C@@H]2[C@@H]3C=C[C@@H](C3)[C@]2(c2ccc(N)cc2)C1` (relative stereo) [4-(1,2,3,4,7,7a-Hexahydro-2-methyl-4,7-methano-3aH-isoindol-3a-yl)benzenamine fumarate (1:2)]?
responders at 25 mg/kg ([2]; ip): 100%; responders at 25 mg/kg ([3]; po): 70%

`CN1C[C@@H]2[C@@H]3CC[C@@H](C3)[C@]2(c2ccc([N+](=O)[O-])cc2)C1` (relative stereo) [Octahydro-2-methyl-3a-(4-nitrophenyl)-4,7-methano-1H-isoindole fumarate (1:1)] was tested. Which inhibition at 10 µM [1] did it give?
Its inhibition at 10 µM is 66%.

What about the responders at 25 mg/kg ([2]; ip) of the same compound?
Its responders at 25 mg/kg is 70%.

And the responders at 25 mg/kg ([3]; ip)?
The responders at 25 mg/kg was 30%.

For `c1ccc([C@@]23CNC[C@@H]2[C@@H]2CC[C@H]3C2)cc1` (relative stereo) [Octahydro-3a-phenyl-4,7-methano-1H-isoindole fumarate], which inhibition at 10 µM [1] is on record?
The inhibition at 10 µM was 98%.

What about the responders at 25 mg/kg ([2]; ip) of the same compound?
The responders at 25 mg/kg was 50%.

And the responders at 25 mg/kg ([3]; ip)?
Its responders at 25 mg/kg is 50%.
